Values joined by “and” are separate entries in the source; they are usually repeats but may differ in a detail not shown here. Equal values may be shown once. Read-outs that look alike come from different tables or passages of the source.
Columns and labels:
[1] = Pharmacokinetics of intravenous bolus citrulline in patients with sickle cell disease; type: in vivo, human; conditions: for clearance: iv
Method: (§1) Background: Hemolysis associated nitric oxide (NO) depletion plays a central role in the pathogenesis of vaso-occlusion in sickle cell disease (SCD). Citrulline is an effective NO booster, even during conditions of inflammation and acute arginase-induced arginine deficiency, characteristic of SCD.
(§2) Methods: Each cohort of participants received an intravenous bolus of 20 mg/kg of citrulline over five minutes with dose increments of 10 mg/kg until a target plasma citrulline level of 80 to 100 μmol/L. FIG. 1. Plasma samples were collected at certain time points for pharmacokinetic studies. Adverse events were followed according to the NCI Common Terminology Criteria for Adverse Events (CTCAE).

[2] = Plasma arginine level after intravenous bolus citrulline in patients with sickle cell disease; type: in vivo, human; conditions: within one hour of bolus intravenous citrulline 20 mg/kg; all subjects
Method: as §2

[3] = Oral citrulline in ICU patients: reaching target citrulline level; type: in vivo, human; conditions: administered orally in an ICU
Text: Oral administration of citrulline obligates the citrulline to pass through the gut and then the liver which removes the citrulline. This is due to the absorption of the citrulline from the gut and transport directly to the liver by the hepatic portal vein in the first pass through the patient's system. […] This would require multiple dosing regimen to achieve a therapeutic plasma level of citrulline. Thus, it is preferable for citrulline therapy to administer the active agent in a manner which bypasses the gut.

[4] = cited from earlier work
[5] = oral twice daily, approximately 0.1 g/kg daily, steady state, cited from earlier work
[6] = Safety / adverse events (NCI CTCAE) of intravenous citrulline in patients with sickle cell disease; type: in vivo, human
Method: as §1, §2

[7] = normal volunteers; cited from earlier work
NO production = conditions: acute arginase-induced arginine deficiency; cited from earlier work
[8] = inhaled, versus placebo; cited from earlier work
[9] = children with VOC; cited from earlier work
NO formation = conditions: oral arginine, cited from earlier work
[10] = Average of patients 1-4, 20 mg/kg intravenous bolus
[11] = bolus intravenous citrulline in patients with SCD
[12] = individual patients, 20 mg/kg intravenous bolus over 5 minutes, 20 mg/kg

Q: Which Krem [1, 10] does the source give for `NC(=O)NCCCC(N)C(=O)O` (centres unmarked) [citrulline, 2-amino-5-(carbamoylamino)pentanoic acid] here?
A: 1.06 h⁻¹

Q: What about the V [1, 10] of the same compound?
A: 0.50 L/kg

Q: What about the “clearance (in words)” value [1, 11] of the same compound?
A: rapid clearance

Q: And the “mean peak level (plasma citrulline)” value ([1]; first cohort of four participants, intravenous bolus infusion of 20 mg/kg)?
A: 259 µmol/L

Q: What about the clearance ([1]; human, plasma, 20 mg/kg, Average of patients 1-4, 20 mg/kg intravenous bolus) of the same compound?
A: 8.67 mL/min/kg

Q: And the clearance ([1]; human, plasma, 20 mg/kg, individual patients, 20 mg/kg intravenous bolus over 5 minutes)?
A: 11.7 mL/min/kg

Q: And the concentration at 4 h ([1]; human, plasma, 4 hours after the infusion, 20 mg/kg intravenous bolus, read-out: trough level (plasma citrulline))?
A: 20 to 40 µM

Q: And the CL [1, 12]?
A: 8.5 mL/min/kg and 6.83 mL/min/kg and 7.67 mL/min/kg

Q: What about the Krem [1, 12] of the same compound?
A: 1.01 1/hr (2×) and 1.34 1/hr and 0.89 1/hr

Q: And the V [1, 12]?
A: 0.70 L/kg and 0.38 L/kg and 0.46 L/kg (2×)

Q: And the “rise in arginine level (mean increment)” value [2]?
A: 182%

Q: What about the “patients who met the target level of citrulline” value [3] of the same compound?
A: 2 out of 3

Q: What about the “safety and plasma citrulline levels” value ([4]; intravenous citrulline (Barr 2007)) of the same compound?
A: may be administered safely to increase and maintain plasma citrulline levels

Q: What about the “safety and plasma citrulline levels” value ([4]; oral citrulline (Smith 2006)) of the same compound?
A: may be administered safely to increase and maintain plasma citrulline levels

Q: What about the symptoms of well-being ([5]; ages 10-18) of the same compound?
A: dramatic improvements

Q: And the plasma arginine levels [5]?
A: raised plasma arginine levels

Q: What about the “total leukocyte and segmented neutrophil counts” value [5] of the same compound?
A: reductions in high total leukocyte and high segmented neutrophil counts toward or to within normal limits

Q: And the other side effects ([6]; 20 mg/kg intravenous bolus, four participants)?
A: no other reported side effects

Q: And the safety and tolerability [6, 11]?
A: safe and well tolerated

Q: And the “transient drop of diastolic blood pressure” value ([6]; one subject, within 30 minutes of study drug, no intervention needed)?
A: > 20%

Q: And the “circulating arginine concentrations versus oral arginine” value [7]?
A: increases circulating arginine concentrations more than oral arginine

Q: And the NO production (NO production)?
A: increased NO production

Q: What about the microcirculatory flow (NO production) of the same compound?
A: improved microcirculatory flow

Q: For `[N]=O` [iNO, nitric oxide], which “effect on time-to-resolution of vaso-occlusive crisis” value [8] is on record?
A: no effect

Q: With `N=C(N)NCCC[C@H](N)C(=O)O` [arginine] as the compound, how does the pain scores [9] read?
A: lowered pain scores

Q: And the parenteral opioid use [9]?
A: reducing parenteral opioid use

Q: And the “increase of NO formation” value (NO formation; normal controls)?
A: 68%

Q: What about the “change in NO” value (NO formation; steady-state SCD patients, not overcome by higher doses) of the same compound?
A: paradoxical decrease in NO

Q: And the NO production (NO production)?
A: did not increase NO production

From patent US12329732B2, “Citrulline for treatment of sickle cell crisis” (Vanderbilt University, priority 2017, dated 2025)
